Results from ChEMBL document CHEMBL4017504, “Blockade of Asparagine Endopeptidase Inhibits Cancer Metastasis” (J Med Chem, 2017).
Active and inactive are the calls of the source. The rule behind the calls is not given here.

Columns and labels:
Mus musculus [1] = assay: Toxicity in nude mouse xenografted with human MDA-MB-231 cells assessed as body weight loss at 3 to 10 mg/kg, po via gavage for 42 consecutive days; type: organism-based; conditions: in vivo
Mus musculus [2] = assay: Toxicity in nude mouse xenografted with human MDA-MB-231 cells assessed as abnormality in bone marrow at 3 to 10 mg/kg, po via gavage for 42 consecutive days by hematoxylin and eosin staining based microscopic method; type: organism-based; conditions: in vivo
MDA-MB-231 [3] = assay: Cytotoxicity against human MDA-MB-231 cells assessed as reduction in cell viability up to 10 uM by MTT assay; type: cell-based
MDA-MB-435 [4] = assay: Anti-invasive activity against human MDA-MB-435 cells harboring AEP siRNA up to 2 uM by crystal violet staining based microscopic method; type: functional, cell-based
MDA-MB-231 [5] = assay: Antitumor activity against human MDA-MB-231 cells xenografted in nude mouse assessed as reduction in mammary tumor weight at 3 to 10 mg/kg, po via gavage for 42 consecutive days; type: functional, organism-based
MDA-MB-231 [6] = assay: Antitumor activity against human MDA-MB-231 cells xenografted in nude mouse assessed as metastatic nodules on lungs at 10 mg/kg, po via gavage for 42 consecutive days by hematoxylin and eosin staining based microscopic method relative to control; type: functional
MDA-MB-231 [7] = assay: Anti-invasive activity against human MDA-MB-231 cells by crystal violet staining based microscopic method; type: functional, cell-based
MDA-MB-435 [8] = assay: Anti-invasive activity against human MDA-MB-435 cells by crystal violet staining based microscopic method; type: functional, cell-based
MDA-MB-231 [9] = assay: Cytotoxicity against human MDA-MB-231 cells assessed as reduction in cell viability up to 2 uM by MTT assay; type: cell-based
MDA-MB-231 [10] = assay: Antitumor activity against human MDA-MB-231 cells xenografted in nude mouse assessed as metastatic nodules on lungs at 3 mg/kg, po via gavage for 42 consecutive days by hematoxylin and eosin staining based microscopic method relative to control; type: functional
Mus musculus [11] = assay: Toxicity in nude mouse xenografted with human MDA-MB-231 cells assessed as abnormality in kidney at 3 to 10 mg/kg, po via gavage for 42 consecutive days by hematoxylin and eosin staining based microscopic method; type: organism-based; conditions: in vivo
Mus musculus [12] = assay: Toxicity in nude mouse xenografted with human MDA-MB-231 cells assessed as abnormality in liver at 3 to 10 mg/kg, po via gavage for 42 consecutive days by hematoxylin and eosin staining based microscopic method; type: organism-based; conditions: in vivo
Mus musculus [13] = assay: Toxicity in nude mouse xenografted with human MDA-MB-231 cells assessed as increase in spleen size at 3 to 10 mg/kg, po via gavage for 42 consecutive days; type: organism-based; conditions: in vivo
[14] = Inhibition of cathepsin-L (unknown origin); set-up: species or system Homo sapiens
MDA-MB-231 [15] = assay: Inhibition of MMP2 cleavage in human MDA-MB-231 cells harboring AEP siRNA up to 10 uM by gelatin zymography assay; type: functional, cell-based
MDA-MB-231 [16] = assay: Anti-invasive activity against human MDA-MB-231 cells at 2 uM by crystal violet staining based microscopic method relative to control; type: functional
MDA-MB-435 [17] = assay: Anti-invasive activity against human MDA-MB-435 cells at 2 uM by crystal violet staining based microscopic method relative to control; type: functional
Mus musculus [18] = assay: Toxicity in nude mouse xenografted with human MDA-MB-231 cells assessed as effect on blood count at 3 to 10 mg/kg, po via gavage for 42 consecutive days by hematoxylin and eosin staining based microscopic method; type: organism-based; conditions: in vivo
Caspase-8 = Caspase-8 (Homo sapiens, UniProt Q14790); assay: Inhibition of caspase-8 (unknown origin)
Caspase-3 = molecular target: T1, Caspase-3 (Homo sapiens, UniProt P42574); assay: Inhibition of caspase-3 (unknown origin)
T1 sequence (P42574 whole entry): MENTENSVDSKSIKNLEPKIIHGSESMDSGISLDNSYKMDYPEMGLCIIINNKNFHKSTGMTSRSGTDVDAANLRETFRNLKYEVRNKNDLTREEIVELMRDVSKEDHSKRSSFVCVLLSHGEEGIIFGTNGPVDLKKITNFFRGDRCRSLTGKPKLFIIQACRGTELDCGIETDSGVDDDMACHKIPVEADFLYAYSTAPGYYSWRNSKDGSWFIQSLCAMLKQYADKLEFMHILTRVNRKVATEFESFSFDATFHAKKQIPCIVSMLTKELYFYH

MDA-MB-435 [19] = assay: Anti-migratory activity against human MDA-MB-435 cells up to 2 uM by transwell assay relative to control; type: functional
MDA-MB-435 [20] = assay: Cytotoxicity against human MDA-MB-435 cells assessed as reduction in cell viability up to 2 uM by MTT assay; type: cell-based
MDA-MB-231 [21] = assay: Anti-migratory activity against human MDA-MB-231 cells up to 2 uM by transwell assay relative to control; type: functional
Cathepsin S = Cathepsin S (Homo sapiens, UniProt P25774); assay: Inhibition of cathepsin-S (unknown origin)
Mus musculus [22] = assay: Reduction in ratio of cleaved MMP2 to full-length MMP2 in mammary tumor of nude mouse xenografted with human MDA-MB-231 cells at 3 to 10 mg/kg, po via gavage for 42 consecutive days by gelatin zymography assay; type: functional, organism-based
MDA-MB-231 [23] = assay: Anti-invasive activity against human MDA-MB-231 cells harboring AEP siRNA up to 2 uM by crystal violet staining based microscopic method; type: functional, cell-based
Legumain (Homo sapiens) = molecular target: T2, Legumain (Homo sapiens) (UniProt Q99538); assay: Inhibition of AEP (unknown origin) assessed as residual activity at 1 uM using Cbz-Ala-Ala-Asn-AMC as substrate after 15 mins by fluorescence assay relative to control
T2 sequence (whole entry): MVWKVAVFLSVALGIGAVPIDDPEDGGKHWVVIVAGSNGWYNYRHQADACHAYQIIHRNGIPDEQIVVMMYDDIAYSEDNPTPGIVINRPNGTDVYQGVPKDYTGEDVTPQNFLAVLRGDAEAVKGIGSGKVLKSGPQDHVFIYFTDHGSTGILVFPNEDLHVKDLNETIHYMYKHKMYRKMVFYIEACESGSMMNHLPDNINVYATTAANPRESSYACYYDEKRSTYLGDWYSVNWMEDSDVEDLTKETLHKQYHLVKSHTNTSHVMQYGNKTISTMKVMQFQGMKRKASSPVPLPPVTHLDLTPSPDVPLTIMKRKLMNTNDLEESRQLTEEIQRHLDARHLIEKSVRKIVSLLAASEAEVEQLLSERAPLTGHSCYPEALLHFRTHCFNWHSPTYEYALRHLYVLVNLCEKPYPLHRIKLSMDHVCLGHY

Legumain [24] = molecular target: T3, Legumain (Homo sapiens, UniProt Q99538); assay: Competitive inhibition of AEP (unknown origin) using varying levels of Z-AAN-AMC substrate after 10 mins by Lineweaver-Burk plot analysis
T3 sequence (Q99538 whole entry): T2 sequence (whole entry)

[25] = Apparent permeability across apical to basolateral side in human Caco2 cells after 2 hrs by LC-MS/MS method; type: ADME, cell-based; conditions: caco-2, 2 h
Legumain (Mus musculus) = molecular target: T4, Legumain (Mus musculus) (UniProt O89017); assay: Inhibition of AEP in mouse kidney by HTS assay
T4 sequence (whole entry): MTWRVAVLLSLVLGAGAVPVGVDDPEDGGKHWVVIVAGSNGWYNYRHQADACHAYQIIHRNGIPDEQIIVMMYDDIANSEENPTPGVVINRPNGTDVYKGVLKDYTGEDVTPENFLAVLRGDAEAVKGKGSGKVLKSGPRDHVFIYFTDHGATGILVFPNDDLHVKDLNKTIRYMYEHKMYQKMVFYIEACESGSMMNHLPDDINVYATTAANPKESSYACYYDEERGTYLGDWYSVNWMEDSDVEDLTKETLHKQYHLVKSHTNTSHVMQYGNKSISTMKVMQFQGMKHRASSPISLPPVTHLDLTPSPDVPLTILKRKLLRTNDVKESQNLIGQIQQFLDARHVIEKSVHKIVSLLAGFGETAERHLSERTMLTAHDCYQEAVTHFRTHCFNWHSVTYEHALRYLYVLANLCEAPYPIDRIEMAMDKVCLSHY

[26] = Apparent permeability across basolateral to apical side in human Caco2 cells after 2 hrs by LC-MS/MS method; type: ADME, cell-based; conditions: caco-2, 2 h
Legumain [27] = molecular target: T3, Legumain; assay: Inhibition of AEP (unknown origin) using Cbz-Ala-Ala-Asn-AMC as substrate after 15 mins by fluorescence assay
Homo sapiens = species: Homo sapiens; assay: Selectivity ratio of IC50 for cathepsin-L (unknown origin) to IC50 for AEP (unknown origin)

Sequence of Cathepsin S (P25774 whole entry): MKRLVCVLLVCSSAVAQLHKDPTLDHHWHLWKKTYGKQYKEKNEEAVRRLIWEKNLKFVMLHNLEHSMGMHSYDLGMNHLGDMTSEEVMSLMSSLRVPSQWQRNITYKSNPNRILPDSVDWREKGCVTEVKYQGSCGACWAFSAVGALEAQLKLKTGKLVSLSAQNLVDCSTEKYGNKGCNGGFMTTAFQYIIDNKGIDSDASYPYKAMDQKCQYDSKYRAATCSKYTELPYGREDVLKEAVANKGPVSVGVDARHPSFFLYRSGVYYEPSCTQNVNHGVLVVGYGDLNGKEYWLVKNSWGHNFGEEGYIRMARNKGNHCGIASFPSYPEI
Sequence of Caspase-8 (Q14790 217-374 limits assumed): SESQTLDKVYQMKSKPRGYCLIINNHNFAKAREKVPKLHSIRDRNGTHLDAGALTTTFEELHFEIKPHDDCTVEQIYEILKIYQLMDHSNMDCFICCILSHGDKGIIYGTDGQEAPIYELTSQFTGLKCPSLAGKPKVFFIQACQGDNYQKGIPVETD
Sequence of Caspase-8 (Q14790 385-479 limits assumed): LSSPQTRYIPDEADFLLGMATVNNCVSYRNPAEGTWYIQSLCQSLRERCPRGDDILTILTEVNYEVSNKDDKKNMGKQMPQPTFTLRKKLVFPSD

Compound: CCn1c(=O)c2c(nc(S)n2C)n(C)c1=O
- Activity (Mus musculus [1]): Non-Toxic
- Activity (Mus musculus [2]): Non-Toxic
- Activity (MDA-MB-231 [3]): Non-Toxic
- Activity (MDA-MB-435 [4]): inactive
- Activity (MDA-MB-231 [5]): Active
- Activity (MDA-MB-231 [6]): 17%
- Activity (MDA-MB-231 [7]): Dose-dependent effect
- Activity (MDA-MB-435 [8]): Dose-dependent effect
- Activity (MDA-MB-231 [9]): Non-Toxic
- Activity (MDA-MB-231 [10]): 33%
- Activity (Mus musculus [11]): Non-Toxic
- Activity (Mus musculus [12]): Non-Toxic
- Activity (Mus musculus [13]): Toxic
- IC50 [14]: 162 µM
- inhibition (MDA-MB-231 [15]): inactive
- inhibition at 2 µM (MDA-MB-231 [16]): 75%
- inhibition at 2 µM (MDA-MB-435 [17]): 75%
- Activity (Mus musculus [18]): Non-Toxic
- IC50 (Caspase-8): > 200 µM
- IC50 (Caspase-3): > 200 µM
- inhibition (INH) (MDA-MB-435 [19]): 40%
- Activity (MDA-MB-435 [20]): Non-Toxic
- inhibition (INH) (MDA-MB-231 [21]): 25%
- IC50 (Cathepsin S): > 200 µM
- Activity (Mus musculus [22]): Active
- Activity (MDA-MB-231 [23]): inactive

Compound: CCn1c(S)nc2c1c(=O)n(C)c(=O)n2C
- Activity (Legumain (Homo sapiens)): 15.9%

Compound: Cn1c(=O)c2c(nc(S(=O)(=O)c3ccccc3)n2C)n(C)c1=O
- Activity (Legumain (Homo sapiens)): 98.9%

Compound: CCn1c(S)nc2c1c(=O)[nH]c(=O)n2C
- Activity (Legumain (Homo sapiens)): 13.8%

Compound: CC[C@H](C)n1c(S)nc2c1c(=O)[nH]c(=O)n2C
- Activity (Legumain (Homo sapiens)): 14.1%

Compound: COc1ccc(OC[C@@H](O)Cn2c(S)nc3c2c(=O)[nH]c(=O)n3C)cc1
- Activity (Legumain (Homo sapiens)): 18.5%

Compound: CC(=O)Cn1c(S)nc2c1c(=O)[nH]c(=O)n2C
- Activity (Legumain (Homo sapiens)): 69.4%

Compound: Cn1c(=O)n(Cc2ccccc2)c(=O)c2c1nc(S)n2Cc1ccccc1
- Activity (Legumain (Homo sapiens)): 17.2%

Compound: Cn1c(=O)[nH]c(=O)c2c1nc(S)n2CC(O)COc1ccc(Cl)cc1 (stereo unspecified)
- Ki (Legumain [24]): 0.105 µM
- Papp [25]: 1.1 ×10⁻⁶ cm/s
- inhibition (Legumain (Mus musculus)): Active
- Papp [26]: 20.3 ×10⁻⁶ cm/s
- IC50 [14]: > 200 µM
- IC50 (Cathepsin S): > 200 µM

Compound: Cn1c(S)nc2c1c(=O)[nH]c(=O)n2C
- Activity (Legumain (Homo sapiens)): 11.5%

Compound: Cn1ccnc1Sc1nc2c(c(=O)n(C)c(=O)n2C)n1C
- Activity (Legumain (Homo sapiens)): 100%

Compound: CC(C)n1c(S)nc2c1c(=O)n(C)c(=O)n2C
- Activity (Legumain (Homo sapiens)): 17.8%

Compound: COCCn1c(S)nc2c1c(=O)[nH]c(=O)n2C
- Activity (Legumain (Homo sapiens)): 13.8%

Compound: Cn1c(=O)[nH]c(=O)c2c1nc(S)n2C[C@H](O)CO
- Activity (Legumain (Homo sapiens)): 85.4%

Compound: CCCCn1c(S)nc2c1c(=O)[nH]c(=O)n2C
- Activity (Legumain (Homo sapiens)): 14.8%

Compound: Cc1ncc2c(=O)[nH]c(=O)n(C)c2n1
- Activity (Legumain (Homo sapiens)): 91.9%

Compound: Cn1c(S)nc2c1c(=O)n(Cc1ccccc1)c(=O)n2C
- IC50 [14]: > 200 µM
- IC50 (Caspase-8): > 200 µM
- IC50 (Caspase-3): > 200 µM
- IC50 (Cathepsin S): > 200 µM

Compound: CC(C)Cn1c(S)nc2c1c(=O)[nH]c(=O)n2C
- Activity (Legumain (Homo sapiens)): 15.7%

Compound: Cn1c(=O)c2c(ncn2C)n(C)c1=O
- Activity (Legumain (Homo sapiens)): 74.3%

Compound: CSc1nc2c(c(=O)n(C)c(=O)n2C)n1C
- Activity (Legumain (Homo sapiens)): 70.5%

Compound: Cn1c(=O)c2c(nc(S(C)(=O)=O)n2C)n(C)c1=O
- Activity (Legumain (Homo sapiens)): 98.3%

Compound: Cc1ccc(Cn2c(S)nc3c2c(=O)[nH]c(=O)n3C)cc1
- Activity (Legumain (Homo sapiens)): 12.3%

Compound: CCCn1c(S)nc2c1c(=O)[nH]c(=O)n2C
- Activity (Legumain (Homo sapiens)): 14.9%

Compound: Cc1ccc(Cn2c(S)nc3c2c(=O)n(C)c(=O)n3C)cc1
- Activity (Legumain (Homo sapiens)): 17.2%

Compound: Cn1c(=O)[nH]c(=O)c2c1nc(S)n2C[C@H](O)COc1ccccc1
- Activity (Legumain (Homo sapiens)): 34.6%

Compound: C=CCn1c(S)nc2c1c(=O)n(C)c(=O)n2C
- Activity (Legumain (Homo sapiens)): 18.1%

Compound: Cn1c(=O)c2c(nc(S)n2C)n(C)c1=O
- IC50 (Legumain [27]): 0.18 µM
- IC50 [14]: 80.5 µM
- Ratio IC50 (Homo sapiens): 500
- IC50 (Caspase-8): > 200 µM
- IC50 (Caspase-3): 185 µM
- IC50 (Cathepsin S): > 200 µM
- Activity (Legumain (Homo sapiens)): 16.1%
